Source: patent US12070452B2, “Compounds targeting HSP110 protein for cancer treatment” (INSERM (Institut National de la Santé et de la Recherche …, priority 2018, dated 2024)

Tests used:
[1] = system: human colorectal cancer HCT116 cells; assay: Tumor growth, HCT116 xenograft in NOD/SCID mice; format: in vivo; conditions: HCT116, 5 mg/Kg intraperitoneally every three days
Description: FIG. 6B: Tumor volume monitoring of HCT116 cells grown in NOD/SCID animals treated intraperitoneally either with a non-relevant compound which is DMSO (named VEH line with circle) or treated with the compound 33 (5 mg/kg—line with square) (Abscissa: Days from 0 to 62 in day; Ordinate: Tumor volume in mm^3 from 0 to 2500 (scale 500)).
(§1) Two different colorectal mouse models were used: a syngeneic model for which mouse colon cancer CT-26 cells were injected into Balb/c mice and a NOD/SCID model in which mice were implanted with human colorectal cancer HCT116 cells (FIG. 4 A-B). When the tumor reached a size of −2 mm, mice were treated intraperitoneally with the compound 33 at 5 mg/Kg (BALB/c n=11, NOD SCID n=6) or corn oil 5% DMSO (BALB/c n=10, NOD SCID n=6), every three days until the end of the experiment. The compound 33 was dissolved in DMSO, then diluted 20 times in corn oil (Sigma Aldrich-C8267) and sterilized by filtration with PTFE membrane Millex 0.2 μm (Millipore-SLFG025LS). Tumors were analyzed before reaching 2000 mm3. Treatment by compound 33 induces a decrease in tumor growth of 40% and 60% in the Balb/c and NOD mice, respectively (FIGS. 6A and 6B).

CT26 tumors = assay: Immunofluorescence of P-STAT3 and cleaved caspase-3 in CT26 tumor slides (Balb/c); format: in vivo, mouse
Source text: FIG. 7A: Immunofluorescence assay of P-STAT3 (Phosphorylated STAT3) in CT26 cells in Balb/c mice tumors treated with VEH (non-relevant compound which is DMSO) (column on the left) or with compound 33 (column on the right). […] Statistical analysis has been performed by ANOVA (*=p=0.0019).
FIG. 7B: Immunofluorescence assay of cleaved caspase-3 (C3C) in CT26 cells in Balb/c mice tumors treated with VEH (column on the left) or with compound 33 (column on the right). […] (Ordinate: Caspase-3 cleaved relative fluorescence in percentage). Statistical analysis has been performed by ANOVA (***=p=0.0003)
as §1, with “Treatment by compound 33 induces a decrease in tumor growth of 40% and 60% in the Balb/c and NOD mice, respectively (FIGS. 6A and 6B).” left out

[2] = system: mouse colon cancer CT-26 cells; assay: Tumor growth, syngeneic CT-26 model in Balb/c mice; format: in vivo; conditions: CT-26, 5 mg/Kg intraperitoneally every three days
Description: FIG. 6A: Tumor volume monitoring of CT26 cells in Balb/c mice control-treated (Ctrl—line with circle) and treated with the compound 33 (5 mg/kg—line with square). Animals were treated by intraperitoneally injection every three days. (Abscissa: Days from 0 to 16 in day; Ordinate: Tumor volume in mm^3 from 0 to 200 (scale 500))
as §1

[3] = Body and spleen weights of mice during treatment; format: in vivo; conditions: immunodeficient mice, 10 or 20 mg/kg intraperitoneally
Description: FIG. 11C: Body weight monitoring of Immunodeficient mice treated intraperitoneally with the compound 52 (=inhibitor 52) at 10 or 20 mg/kg or with vehicle at the same frequency. (Abscissa: Days from 0 to 20 in day; Ordinate: Body weight in g from 24 to 34 g (scale 2)).
FIG. 11D: Spleen weights monitoring of Immunodeficient mice treated intraperitoneally with the compound 52 (=inhibitor 52) at 10 or 20 mg/kg or with vehicle at the same frequency. (Abscissa: Treatments vehicle, 10 mg/kg or 20 mg/kg of compound 52; Ordinate: Spleen weight in mg from 20 to 100 mg (scale 20)).

TMD8 human DLBCL cells = assay: TMD8 DLBCL xenograft in immunodeficient mice, tumor growth; format: in vivo; conditions: 10 or 20 mg/kg intraperitoneally
Description: FIG. 11A: Tumor volume monitoring of TMD8 human DLBCL cells grown in Immunodeficient mice treated intraperitoneally with the compound 52 (=inhibitor 52) at 10 or 20 mg/kg or with vehicle at the same frequency. (Abscissa: Days from 0 to 25 in day; Ordinate: Tumor volume in mm^3 from 0 to 4000 (scale 1000)).
FIG. 11B: Tumor weight monitoring of TMD8 human DLBCL cells grown in Immunodeficient mice treated intraperitoneally with the compound 52 (=inhibitor 52) at 10 or 20 mg/kg or with vehicle at the same frequency. (Abscissa: Treatments vehicle, 10 mg/kg or 20 mg/kg of compound 52; Ordinate: Tumor weight in g from 0 to 4 g (scale 1)).

| Structure (SMILES) | decrease in tumor growth [1] [%] | P-STAT3 in tumor slides (relative fluorescence) (CT26 tumors; CT26 tumors in Balb/c mice, control 100%) [%] | tumor cell apoptosis (cleaved caspase-3 staining) (CT26 tumors; CT26 tumors, Balb/c model) | decrease in tumor growth [2] [%] | toxicity (body and spleen weights) [3] | tumor growth of xenografted DLBCL cell line (TMD8 human DLBCL cells) |
| --- | --- | --- | --- | --- | --- | --- |
| COc1ccc(-c2ncc(-c3ncc(-c4cc(OC)c(OC)c(OC)c4)cc3/C=C/c3ccccc3)cc2C)cc1OC [compound 33, (E)-6′-(3,4-Dimethoxyphenyl)-5′-methyl-3-styryl-5-(3,4,5-trimethoxyphenyl)-2,3′-bipyridine] | 60 | 50 | increase in tumor cell apoptosis | 40 |  |  |
| COc1cc(-c2cnc(-c3cnc(-c4cc(OC)c(OC)c(OC)c4)c(C)c3)c(/C=C/c3ccccc3)c2)cc(OC)c1OC [compound 52, (E)-5′-Methyl-3-styryl-5,6′-bis(3,4,5-trimethoxyphenyl)-2,3′-bipyridine] |  |  |  |  | no toxicity | reduced the tumor growth |
